According to patent publication US8026378B2, “Glyceryl ether compounds and their use” (Segetis, Inc., priority 2005, dated 2011):

Assay: Emulsifying properties: hexane/water emulsions
Format: physicochemical
Settings: for emulsifying properties on addition of salt: addition of 0.2% calcium chloride or magnesium chloride, mixture of isomers; for stability of emulsions of water in hexane: aqueous solutions of the mixture of isomers
Text: […] The emulsifying properties of compounds (12a) and (12b) were not disrupted by the addition of 0.2% calcium chloride or magnesium chloride.

| emulsifying properties on addition of salt | Structure (SMILES) | stability of emulsions of water in hexane |
| --- | --- | --- |
| not disrupted | CCCCCCCCC(O)COCC(O)CO (stereo not drawn) [Compound 12a] |  |
| not disrupted | CCCCCCCCC(CO)OCC(O)CO (stereo not drawn) [Compound 12b] |  |
| not substantially disrupted | CCCCCCCCCCCCCCCCC(O)COCC(O)CO (stereo not drawn) [Compound 13a] | able to support stability of emulsions of water in hexane |
| not substantially disrupted | CCCCCCCCCCCCCCCCC(CO)OCC(O)CO (stereo not drawn) [Compound 13b] | able to support stability of emulsions of water in hexane |
